Assay results from PMC11822212, “High-throughput screening identifies Aurora kinase B as a critical therapeutic target for Merkel cell carcinoma” (Nature Communications, 2025).

Experiments:
[1] = system: HACAT cells; assay: qHTS cell viability (CellTiter-Glo, 72 h; primary screen), control cell line; format: cell-based, human
[2] = system: MCC13 cells (VN-MCC); assay: qHTS cell viability (CellTiter-Glo, 72 h; primary and follow-up small molecule screen); format: cell-based, human
[3] = system: MKL-1 cells (VP-MCC); assay: as above; format: cell-based, human
[4] = system: NIH-3T3 cells; assay: qHTS cell viability (CellTiter-Glo, 72 h; primary screen), control cell line; format: cell-based, mouse
[5] = system: UISO cells (VN-MCC); assay: qHTS cell viability (CellTiter-Glo, 72 h; primary and follow-up small molecule screen); format: cell-based, human
[6] = system: CRL-7250 cells; assay: qHTS cell viability (CellTiter-Glo, 72 h; primary screen), control cell line; format: cell-based
[7] = system: WAGA cells (VP-MCC); assay: qHTS cell viability (CellTiter-Glo, 72 h; primary and follow-up small molecule screen); format: cell-based, human
[8] = system: MKL-2 cells (VP-MCC); assay: as above; format: cell-based, human
[9] = system: MCC26 cells (VN-MCC); assay: as above; format: cell-based, human
[10] = system: HEK293T cells; assay: qHTS cell viability (CellTiter-Glo, 72 h; primary screen), control cell line; format: cell-based, human

Row | SMILES | HACAT_AUC [1] | MCC13_AUC [2] | MKL1_AUC [3] | NIH3T3_AUC [4] | UISO_AUC [5] | CRL7250_AUC [6] | WAGA_AUC [7] | MKL2_AUC [8] | MCC26_AUC [9] | HEK293T_AUC [10] | other results
1 | COC[C@H]1OC(=O)c2coc3c2[C@@]1(C)C1=C(C3=O)[C@@H]2CC[C@H](O)[C@@]2(C)C[C@H]1OC(C)=O [17_-hydroxy Wortmannin] | 466.176 | 505.746 | 433.03 | 465.601 | 484.969 | 461.56 | 431.369 | 431.749 | 506.622 | 476.067 | Area under the dose-response curve (AUC) MCC13 Replicate 1 [2]: 446.4; Area under the dose-response curve (AUC) MCC13 Replicate 2 [2]: 414.9; Area under the dose-response curve (AUC) MCC13 Replicate 3 [2]: 433.1; Area under the dose-response curve (AUC) MKL-1 Replicate 1 [3]: 417.4; Area under the dose-response curve (AUC) MKL-1 Replicate 2 [3]: 456.9; Area under the dose-response curve (AUC) MKL-1 Replicate 3 [3]: 460.6; Area under the dose-response curve (AUC) UISO Replicate 1 [5]: 419.6; Area under the dose-response curve (AUC) UISO Replicate 2 [5]: 426.0; Area under the dose-response curve (AUC) UISO Replicate 3 [5]: 431.4; Area under the dose-response curve (AUC) WAGA Replicate 1 [7]: 390.4; Area under the dose-response curve (AUC) WAGA Replicate 2 [7]: 444.0; Area under the dose-response curve (AUC) WAGA Replicate 3 [7]: 465.6; Area under the dose-response curve (AUC) MKL-2 Replicate 1 [8]: 408.4; Area under the dose-response curve (AUC) MKL-2 Replicate 2 [8]: 434.1; Area under the dose-response curve (AUC) MKL-2 Replicate 3 [8]: 442.8; Area under the dose-response curve (AUC) MCC26 Replicate 1 [9]: 392.5; Area under the dose-response curve (AUC) MCC26 Replicate 2 [9]: 398.0; Area under the dose-response curve (AUC) MCC26 Replicate 3 [9]: 386.6
2 | CC(N[C@H]1CCCC[C@@H]1NC(=O)c1ccc(Cl)cc1)c1cccc2ccccc12 (some centres unmarked) [Calhex-231] | 466.353 | 461.512 | 380.302 | 459.862 | 470.957 | 474.743 | 428.682 | 347.428 | 461.125 | 469.437 | 
